Columns and labels:
[1] = test system: splenic CD11c+ DCs from B6 mice; assay: Presentation of SIINFEKL via MHC-I by DCs; assay type: cell-based, mouse; conditions: anti-SIIN/MHC-I antibody
Method: DC activation and antigen presentation: […] After incubation with iPEM-coated AuNPs, DCs were washed twice with PBS+1% BSA, then blocked in anti-CD16/CD32 (Fcγ III/II receptor) (25× dilution, BD Biosciences) for 15 min at room temperature. The cells were then stained with antibodies for CD80 (FITC), CD86 (AmCyan-A), and CD40 (PE). To quantify presentation of SIINFEKL (SEQ ID NO:15) via the MHC-I pathway, cells were stained with a PE-Cy7 labeled antibody (BioLegend) against anti-mouse H-2Kb bound to OVA257-264 (SIINFEKL (SEQ ID NO:15)). All antibodies were fluorescent conjugates and were used by staining for 20 min at a 1:300 dilution in PBS+1% BSA. Cells were then washed twice in PBS+1% BSA and resuspended in a DAPI solution for analysis by flow cytometry. The data analysis was performed with Flowjo (Treestar).

TLR3 = target: T1, TLR3 (Mus musculus, UniProt Q99MB1); assay: TLR3 signaling in HEK-Blue mTLR3 cells (AuNP iPEMs); assay type: cell-based; conditions: 16 hours, absorbance 625 nm
T1 construct: host or cells: HEK-Blue mTLR3 (HEK293-derived reporter cells)
T1 sequence (Q99MB1 26-905): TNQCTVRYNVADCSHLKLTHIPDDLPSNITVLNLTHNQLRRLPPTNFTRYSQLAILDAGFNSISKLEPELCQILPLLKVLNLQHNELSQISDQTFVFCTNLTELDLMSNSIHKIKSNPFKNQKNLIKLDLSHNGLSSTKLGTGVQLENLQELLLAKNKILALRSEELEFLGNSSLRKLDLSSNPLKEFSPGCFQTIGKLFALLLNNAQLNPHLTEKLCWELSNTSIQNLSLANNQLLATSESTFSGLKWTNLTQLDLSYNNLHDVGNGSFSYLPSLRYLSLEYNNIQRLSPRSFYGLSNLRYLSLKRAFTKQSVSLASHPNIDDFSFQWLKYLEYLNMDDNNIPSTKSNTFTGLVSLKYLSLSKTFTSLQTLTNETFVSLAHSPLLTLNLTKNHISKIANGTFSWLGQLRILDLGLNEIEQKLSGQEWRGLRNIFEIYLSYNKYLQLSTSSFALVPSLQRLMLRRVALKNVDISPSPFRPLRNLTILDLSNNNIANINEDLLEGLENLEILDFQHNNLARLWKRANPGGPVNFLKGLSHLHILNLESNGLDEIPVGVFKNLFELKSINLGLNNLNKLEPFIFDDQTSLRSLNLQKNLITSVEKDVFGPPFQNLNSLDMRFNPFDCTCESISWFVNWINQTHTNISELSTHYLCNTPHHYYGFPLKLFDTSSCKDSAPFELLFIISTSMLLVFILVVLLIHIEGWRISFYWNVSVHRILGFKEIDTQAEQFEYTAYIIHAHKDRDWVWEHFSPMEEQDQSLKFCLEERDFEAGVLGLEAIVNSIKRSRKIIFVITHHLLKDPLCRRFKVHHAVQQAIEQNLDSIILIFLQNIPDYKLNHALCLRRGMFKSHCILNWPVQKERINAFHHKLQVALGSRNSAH
Method: TLR3 signaling: TLR3 activity was assessed using HEK-Blue mTLR3 cells (Invivogen). Cells were seeded at a concentration of 5.0×10^4 cells per well, followed by treatment with Pam3CSK4 (0.2 μg/mL), LPS (1.0 μg/mL), polyIC (10 μg/mL), C-ODN (5 μg/mL), SIIN peptide (5 μg/mL), AuNPs (1.9×10^−2 mg/well), AuNP-(C-ODN/SIIN*)2 (80 μg/mL), or AuNP-(polyIC/SIIN*)2 (80 μg/mL). After 16 hours the absorbance was read at 625 nm using a UV/Vis platereader (Molecular Devices).

OT-I CD8+ T cells = assay: DC / OT-I CD8+ T cell co-culture, CFSE proliferation; assay type: cell-based, mouse; conditions: T cells co-cultured with treated DCs
Method: (§1) T cell co-culture, activation, and proliferation: […] Untreated cells were used as a negative control. After 48 h, T cells isolated from OT-I mice were stained with CellTrace™ CFSE cell proliferation reagent (5 μg/mL in cell culture medium) by incubation at room temperature for 5 min. T cells were then co-cultured with each DC sample by addition of 3.0×10^5 T cells per well. After an additional 48 h of incubation, cells were centrifuged (800 rcf for 5 min), the supernatants were collected for ELISA, and the cells were washed in PBS+1% FBS. Cells were then blocked as above and stained with anti-CD8a (APC) for 15 min at room temperature. Lastly, cells were washed twice and re-suspended in DAPI. T cell proliferation was determined by the mean fluorescence intensity (MFI) of CFSE signal among DAPI^−, CD8^+ cells compared with positive and negative controls.

[2] = test system: DC/OT-I T cell co-cultures; assay: ELISA of cytokines in DC/T cell co-culture supernatants; assay type: cell-based, mouse; conditions: co-culture supernatant, SIIN-treated samples
Method: as §1, with “controls. ELISA: Cytokine levels in the supernatants collected from DCs/T cell co-cultures were analyzed by ELISA using mouse TNF, IFN-γ, and IL-1β ELISA reagents (BD Bioscience) according to the manufacturer's instructions. 10 μL of each supernatant was used in each test, and cytokine concentrations were quantified by comparison to standard curves prepared from known standards.” for “controls.”

primary DCs = assay type: cell-based, mouse
Method: Cell internalization studies: Association and uptake of coated AuNPs by DCs was characterized by flow cytometry (FACS CantoII, BD Bioscience) and confocal microscopy (Leica SP5X). For flow cytometry, CD11c^+ splenic DCs were seeded in 96 well plates at a concentration of 1.0×10^5 cells per well. Uncoated AuNPs or AuNPs-(polyIC-Cy5/SIIN*-FITC)2 were then added to each well in a volume of 25 μL. Two-fold serial dilutions were performed using a starting iPEM/AuNPs concentration of 1.9 mg/mL. Cells were then cultured for 16 h. After incubation, cells were washed twice by centrifugation and re-suspended in FACS buffer (PBS+1% BSA). The washed cells were finally resuspended in a DAPI solution (0.1% in PBS+1% BSA) to allow assessment of viability by flow cytometry (i.e., DAPI^− cells). Cells positive for FITC and Cy5 signals compared with negative controls were considered to have associated with iPEMs.

Substance	DCs presenting SIIN via MHC-I [1]	TLR3 signaling (TLR3)	OT-I T cell proliferation (CFSE dilution) (OT-I CD8+ T cells)	cytokine secretion [2]	viability of DCs relative to cells treated with LPS (primary DCs) [%]
lipopolysaccharide [LPS]	baseline levels	lack of signal	–	–	–
Pam3CSK4	–	lack of signal	–	–	–
SIINFEKL (Ovalbumin peptide model antigen) [SIIN peptide]	–	–	proliferation of OT-I T cells	lack of cytokine secretion	–
Polyinosinic-polycytidylic acid [polyIC]	baseline levels	–	–	–	92.8
